In US20210137903A1, “ANTI-ANDROGENS FOR THE TREATMENT OF PROSTRATE CANCER” (priority 2019, published 2021):

Experiments:
[1] = Example 1 relative bioavailability study: pharmacokinetics, whole tablets vs mixture in applesauce; type: in vivo, human; conditions: n=10
Experimental: This was a randomized, open-label, balanced, single dose, two-treatment, two-period, two-sequence, crossover relative bioavailability study.
Healthy male subjects were randomly assigned to 1 of 2 treatment sequences by following the randomization scheme as given below.
All study drug were taken in the morning on Day 1 of each treatment period. […] For Treatment B, the study drug-applesauce mixture was prepared by a pharmaceutical technician or pharmacist. An additional 50 mL of water for either treatments was allowed if necessary. Study drug of Treatment B was be ingested within 5 minutes. Treatment A was be swallowed whole and not chewed, divided, dissolved, or crushed.
Additional PK parameters could be included if deemed appropriate.
Pharmacokinetic analysis was performed by or under the responsibility of the sponsor.
Pharmacokinetic and statistical analysis were done using Phoenix™ WinNonlin® (Tripos L.P.). Noncompartmental analysis was applied for the pharmacokinetic analysis. Furthermore, Microsoft Excel® (Microsoft, Redmond, Wash., United States), and SAS (SAS Institute Inc., Cary, N.C., US) were used.
If one of the PK parameters could not be determined for a given subject in 1 or more periods, the subject's data was not included in the statistical analysis of that particular PK parameter. The analysis was performed on log-transformed PK parameters.
A mixed effect model that includes treatment, period, and treatment sequence as fixed effects, and subject as a random effect, was used to estimate the least squares means and intrasubject variance. Using these estimated least squares means and intrasubject variance, the point estimate and 90% CIs for the difference in means on a log scale between test and reference were constructed. The limits of the CIs was retransformed using antilogarithms to obtain 90% CIs for the geometric mean ratios of Cmax and AUC0-168 h of the test to reference formulation. A similar analysis was conducted for AUC0-72 h for supplemental purpose.

CRPC = assay: Phase II clinical trial, apalutamide 240 mg continuous daily dosing in CRPC; type: in vivo, human; conditions: for patients with 12-week PSA declines of >50% or more from baseline: 240 mg daily
Text: The primary objective was to assess antitumor activity and PSA kinetics as defined by the Prostate Cancer Clinical Trials Working Group (PCWG2) criteria. […] The median time to PSA progression was not reached for the TN cohort during the preliminary 12-week period, and was 16 weeks in the PA cohort.
The median time to PSA progression was not reached in this observed time period.

high-risk nmCRPC = assay: Phase 3 SPARTAN registration study, apalutamide 240 mg once daily vs placebo; type: in vivo, human
Text: This study was a randomized, double-blind, placebo-controlled, multicenter trial that evaluated apalutamide treatment in patients with high-risk nmCRPC. […] All patients continued to receive ongoing androgen-deprivation therapy (GnRHa or surgical castration).

[2] = test system: non-castrate hormone-sensitive and bicalutamide-resistant human prostate cancer xenograft models; conditions: cited from earlier work
[3] = Biopharmaceutics Classification System classification; type: physicochemical; conditions: highly permeable and poorly soluble
Text: Apalutamide is a Biopharmaceutics Classification System Class II drug (highly permeable and poorly soluble). The commercialized formulation is a spray dried powder of amorphous apalutamide.

[4] = Safety in healthy subjects (previous single-dose studies); type: in vivo
Text: Healthy subjects are commonly selected for PK studies as they allow for assessments in the absence of confounding factors such as comorbid conditions and concomitant medications. In this study, only male subjects were enrolled as the target patient population for clinical use of apalutamide consists of male subjects with CRPC.
The potential risks to subjects in this study included exposure to study drugs, with a potential for AEs. […] Subjects were monitored for AEs throughout the study, and an expert investigator was chosen to conduct the study. In each treatment period, subjects were confined to the study center until completion of the 72-hour PK assessments on Day 4 and returned to the study center for additional assessments up to Day 8 after intake of the study drug. Subject's safety was monitored at regular intervals throughout the study by physical examination, laboratory safety assessments, ECG and vital signs.

Question: For CNC(=O)c1ccc(N2C(=S)N(c3cnc(C#N)c(C(F)(F)F)c3)C(=O)C23CCC3)cc1F [apalutamide, 4-[7-(6-cyano-5-trifluoromethylpyridin-3-yl)-8-oxo-6-thioxo-5,7-diazaspiro[3.4]oct-5-yl]-2-fluoro-N-methylbenzamide], which “AUC0-72h Intra-subject CV(%)” value [1] is on record?
Answer: The value was 3.7%.

Question: What about the “AUC0-168h Intra-subject CV(%)” value [1] of the same compound?
Answer: The value was 2.7%.

Question: What about the “Cmax Intra-subject CV(%)” value [1] of the same compound?
Answer: Its value is 13.8%.

Question: What about the tolerability (CRPC; 240 mg continuous daily dosing) of the same compound?
Answer: Its tolerability is “very well tolerated”.

Question: And the “median time to PSA progression” value (CRPC; PA cohort)?
Answer: Its value is 16 weeks.

Question: And the “median time to PSA progression” value (CRPC; TN cohort, preliminary 12-week period)?
Answer: The value was “not reached”.

Question: And the “objective response rate (by RECIST)” value (CRPC; TN patients with measurable disease at baseline)?
Answer: Its value is 63%.

Question: What about the “patients with >50% decline in PSA as compared to baseline” value (CRPC; non-metastatic CRPC, 12 weeks) of the same compound?
Answer: Its value is 91%.

Question: And the “patients with >50% decline in PSA” value (CRPC; non-metastatic CRPC, 24 weeks)?
Answer: The value was 91%.

Question: What about the “patients with >90% decline in PSA” value (CRPC; non-metastatic CRPC, 24 weeks) of the same compound?
Answer: The value was 55%.

Question: And the “median time to PSA progression” value (CRPC; non-metastatic CRPC, observed time period)?
Answer: The value was “not reached”.

Question: And the “patients with 12-week PSA declines of >50% or more from baseline” value (CRPC; post-abiraterone (PA) metastatic CRPC cohort)?
Answer: Its value is 29%.

Question: What about the “patients with 12-week PSA declines of >50% or more from baseline” value (CRPC; treatment-naive (TN) metastatic CRPC cohort) of the same compound?
Answer: Its value is 88%.

Question: And the “subjects with documented PSA progression” value (high-risk nmCRPC; 192 subjects)?
Answer: The value was 24%.

Question: What about the arthralgia (high-risk nmCRPC; TEAE incidence) of the same compound?
Answer: The arthralgia was 16%.

Question: What about the diarrhea (high-risk nmCRPC; TEAE incidence) of the same compound?
Answer: Its diarrhea is 20%.

Question: What about the fatigue (high-risk nmCRPC; TEAE incidence) of the same compound?
Answer: The fatigue was 30%.

Question: What about the hypertension (high-risk nmCRPC; TEAE incidence) of the same compound?
Answer: The hypertension was 25%.

Question: And the nausea (high-risk nmCRPC; TEAE incidence)?
Answer: The nausea was 18%.

Question: And the weight decreased (high-risk nmCRPC; TEAE incidence)?
Answer: Its weight decreased is 16%.

Question: What about the fall (high-risk nmCRPC; TEAE incidence, all grades) of the same compound?
Answer: The fall was 16%.

Question: What about the “skin rash (grouped term)” value (high-risk nmCRPC; TEAE incidence, all grades) of the same compound?
Answer: Its value is 24%.

Question: And the fracture (high-risk nmCRPC; all grades)?
Answer: The fracture was 12%.

Question: And the hypothyroidism (high-risk nmCRPC; all grades)?
Answer: The hypothyroidism was 8.1%.

Question: What about the seizure (high-risk nmCRPC; all grades) of the same compound?
Answer: Its seizure is 0.2%.

Question: And the “Grade 3 skin rashes” value (high-risk nmCRPC; in vivo)?
Answer: Its value is 5.2%.

Question: What about the “decrease of risk of PSA progression compared with placebo” value (high-risk nmCRPC; in vivo) of the same compound?
Answer: Its value is 94%.

Question: What about the “incidence of AEs of special interest” value (high-risk nmCRPC; in vivo) of the same compound?
Answer: The value was 42%.

Question: What about the “longer median metastasis-free survival over placebo” value (high-risk nmCRPC; in vivo) of the same compound?
Answer: Its value is 2 years.

Question: And the “lower limit of the 95% CI for the median time to PSA progression” value (high-risk nmCRPC; in vivo)?
Answer: The value was 36.8 months.

Question: What about the “median time to PSA progression” value (high-risk nmCRPC; in vivo) of the same compound?
Answer: The value was “not estimable”.

Question: And the “subjects who discontinued treatment due to TEAEs” value (high-risk nmCRPC; in vivo)?
Answer: Its value is 11%.

Question: What about the “subjects with Grade 3-4 TEAEs” value (high-risk nmCRPC; in vivo) of the same compound?
Answer: The value was 45%.

Question: What about the “subjects with serious adverse events (SAEs)” value (high-risk nmCRPC; in vivo) of the same compound?
Answer: The value was 25%.

Question: What about the “subjects with treatment-emergent adverse events” value (high-risk nmCRPC; in vivo) of the same compound?
Answer: The value was 97%.

Question: And the “total PSA response (confirmed and unconfirmed)” value (high-risk nmCRPC; in vivo)?
Answer: The value was 93%.

Question: And the “confirmed prostate-specific antigen (PSA) response” value (high-risk nmCRPC; subjects in apalutamide arm)?
Answer: Its value is 90%.

Question: And the “HR for PSA progression” value (high-risk nmCRPC; vs placebo, 95% CI: 0.052, 0.080)?
Answer: Its value is 0.064.

Question: And the tumor regression [2]?
Answer: The tumor regression was “partial or complete tumor regression”.

Question: And the “Biopharmaceutics Classification System class” value [3]?
Answer: Its value is “Class II”.

Question: What about the “testosterone and luteinizing hormone (LH)” value ([4]; healthy men, 240 mg) of the same compound?
Answer: Its value is “transient increase”.

Question: What about the TSH ([4]; healthy men, single dose 240 mg) of the same compound?
Answer: The TSH was “Reversible mild increases”.

Question: What about the “tolerability of single doses up to 240 mg” value ([4]; human, in vivo) of the same compound?
Answer: The value was “well tolerated”.
